Literature values, collected in PMC9516332 (Frontiers in Oncology, 2022).
Where two headings read alike, the source gives them in different places.

Experiments:
Conditions in all cases: cited from earlier work
[1] = biological target: T1, panel of 255 wild-type kinases (Homo sapiens, UniProt P15735)
T1 sequence (P15735 1-406): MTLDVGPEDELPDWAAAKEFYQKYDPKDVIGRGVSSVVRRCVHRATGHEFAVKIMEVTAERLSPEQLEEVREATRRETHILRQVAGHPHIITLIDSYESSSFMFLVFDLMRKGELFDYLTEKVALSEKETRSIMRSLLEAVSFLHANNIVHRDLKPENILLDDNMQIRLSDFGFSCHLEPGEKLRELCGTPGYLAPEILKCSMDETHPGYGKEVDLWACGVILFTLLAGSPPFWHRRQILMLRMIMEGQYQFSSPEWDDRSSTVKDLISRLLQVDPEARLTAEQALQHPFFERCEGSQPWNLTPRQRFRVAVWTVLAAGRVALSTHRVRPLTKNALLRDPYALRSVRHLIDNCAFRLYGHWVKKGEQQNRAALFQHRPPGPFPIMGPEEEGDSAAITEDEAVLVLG

[2] = biological target: panel of 255 wild-type kinases (Homo sapiens, UniProt Q86Z02)
[3] = biological target: T2, panel of 255 wild-type kinases (Homo sapiens, UniProt Q9NRA0)
T2 sequence (Q9NRA0 1-654): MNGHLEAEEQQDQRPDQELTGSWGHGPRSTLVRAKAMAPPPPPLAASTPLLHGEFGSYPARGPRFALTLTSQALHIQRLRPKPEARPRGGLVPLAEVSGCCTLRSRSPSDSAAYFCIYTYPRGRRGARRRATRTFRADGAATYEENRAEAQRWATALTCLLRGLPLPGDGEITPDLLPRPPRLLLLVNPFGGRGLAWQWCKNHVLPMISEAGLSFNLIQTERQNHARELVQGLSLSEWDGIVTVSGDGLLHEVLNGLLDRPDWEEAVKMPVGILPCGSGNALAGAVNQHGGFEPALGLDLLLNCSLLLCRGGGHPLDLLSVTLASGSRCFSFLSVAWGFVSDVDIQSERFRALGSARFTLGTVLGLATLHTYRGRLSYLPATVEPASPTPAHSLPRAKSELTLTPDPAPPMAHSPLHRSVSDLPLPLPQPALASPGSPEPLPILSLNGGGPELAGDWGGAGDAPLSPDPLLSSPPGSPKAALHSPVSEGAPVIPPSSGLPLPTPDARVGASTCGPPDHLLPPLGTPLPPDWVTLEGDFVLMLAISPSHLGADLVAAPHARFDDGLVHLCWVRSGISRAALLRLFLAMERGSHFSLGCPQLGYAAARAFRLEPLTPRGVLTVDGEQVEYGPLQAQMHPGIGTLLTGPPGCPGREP

[4] = biological target: panel of 255 wild-type kinases (Homo sapiens, UniProt O14578)
[5] = biological target: panel of 255 wild-type kinases (Homo sapiens, UniProt P35916)
[6] = biological target: panel of 255 wild-type kinases (Homo sapiens, UniProt Q9P286)
[7] = biological target: panel of 255 wild-type kinases (Homo sapiens, UniProt P53355)
[8] = biological target: panel of 255 wild-type kinases (Homo sapiens, UniProt P28482)
[9] = biological target: panel of 255 wild-type kinases (Homo sapiens, UniProt Q9NYY3)
[10] = biological target: panel of 255 wild-type kinases (Homo sapiens, UniProt P05129)
[11] = biological target: T3, panel of 255 wild-type kinases (Homo sapiens, UniProt P42681)
T3 sequence (P42681 1-527): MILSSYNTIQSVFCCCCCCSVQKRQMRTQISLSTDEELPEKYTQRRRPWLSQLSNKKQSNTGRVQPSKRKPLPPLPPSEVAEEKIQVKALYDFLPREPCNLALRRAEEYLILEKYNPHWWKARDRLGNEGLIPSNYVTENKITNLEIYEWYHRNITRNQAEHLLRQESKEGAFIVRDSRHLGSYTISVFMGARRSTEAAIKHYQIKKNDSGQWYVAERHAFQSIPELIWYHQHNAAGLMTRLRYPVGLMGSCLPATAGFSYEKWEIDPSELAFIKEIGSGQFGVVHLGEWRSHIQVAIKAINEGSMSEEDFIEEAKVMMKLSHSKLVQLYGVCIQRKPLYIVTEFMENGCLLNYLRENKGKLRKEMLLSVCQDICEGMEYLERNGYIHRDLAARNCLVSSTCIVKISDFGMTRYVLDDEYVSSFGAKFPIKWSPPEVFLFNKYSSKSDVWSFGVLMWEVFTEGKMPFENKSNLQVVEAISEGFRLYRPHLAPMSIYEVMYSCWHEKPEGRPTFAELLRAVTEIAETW

[12] = kinase PHKG2, 1 µmol/L single concentration, ref DOI: 10.1158/1535-7163.MCT-18-0877
[13] = kinase HIPK1, 1 µmol/L single concentration, ref DOI: 10.1158/1535-7163.MCT-18-0877
[14] = kinase SPHK2, 1 µmol/L single concentration, ref DOI: 10.1158/1535-7163.MCT-18-0877
[15] = kinase CRIK, 1 µmol/L single concentration, ref DOI: 10.1158/1535-7163.MCT-18-0877
[16] = kinase FLT4, 1 µmol/L single concentration, ref DOI: 10.1158/1535-7163.MCT-18-0877
[17] = PAK5, 1 µmol/L single concentration, ref DOI: 10.1158/1535-7163.MCT-18-0877
[18] = kinase DAPK1, 1 µmol/L single concentration, ref DOI: 10.1158/1535-7163.MCT-18-0877
[19] = kinase Erk2, 1 µmol/L single concentration, ref DOI: 10.1158/1535-7163.MCT-18-0877
[20] = kinase PLK2, 1 µmol/L single concentration, ref DOI: 10.1158/1535-7163.MCT-18-0877
[21] = kinase PKCγ, 1 µmol/L single concentration, ref DOI: 10.1158/1535-7163.MCT-18-0877
[22] = kinase TXK, 1 µmol/L single concentration, ref DOI: 10.1158/1535-7163.MCT-18-0877
[23] = kinase PHKG2, 1 µmol/L single concentration, ref DOI: 10.1371/journal.pone.0092146
[24] = kinase HIPK1, 1 µmol/L single concentration, ref DOI: 10.1371/journal.pone.0092146
[25] = kinase SPHK2, 1 µmol/L single concentration, ref DOI: 10.1371/journal.pone.0092146
[26] = kinase CRIK, 1 µmol/L single concentration, ref DOI: 10.1371/journal.pone.0092146
[27] = kinase FLT4, 1 µmol/L single concentration, ref DOI: 10.1371/journal.pone.0092146
[28] = PAK5, 1 µmol/L single concentration, ref DOI: 10.1371/journal.pone.0092146
[29] = kinase DAPK1, 1 µmol/L single concentration, ref DOI: 10.1371/journal.pone.0092146
[30] = kinase Erk2, 1 µmol/L single concentration, ref DOI: 10.1371/journal.pone.0092146
[31] = kinase PLK2, 1 µmol/L single concentration, ref DOI: 10.1371/journal.pone.0092146
[32] = kinase PKCγ, 1 µmol/L single concentration, ref DOI: 10.1371/journal.pone.0092146
[33] = kinase TXK, 1 µmol/L single concentration, ref DOI: 10.1371/journal.pone.0092146

SMILES | %-inhibition at 1 µmol/L, PHKG2 [1, 12] | %-inhibition at 1 µmol/L, HIPK1 [2, 13] | %-inhibition at 1 µmol/L, SPHK2 [3, 14] | %-inhibition at 1 µmol/L, CRIK [4, 15] | %-inhibition at 1 µmol/L, FLT4 [5, 16] | %-inhibition, PAK5 [6, 17] | %-inhibition at 1 µmol/L, DAPK1 [7, 18] | %-inhibition at 1 µmol/L, Erk2 [8, 19] | %-inhibition at 1 µmol/L, PLK2 [9, 20] | %-inhibition at 1 µmol/L, PKCγ [10, 21] | %-inhibition at 1 µmol/L, TXK [11, 22] | further results
CC#CC(=O)N1CCC[C@H]1c1nc(-c2ccc(C(=O)Nc3ccccn3)cc2)c2c(N)nccn12 [acalabrutinib] | 0.00605% | -15% | 7% | -5% | 1.41% | -0.37% | -17% | -2% | 2.47% | -7.43% | 68% | 
CCc1cc2c(cc1N1CCC(N3CCOCC3)CC1)C(C)(C)c1[nH]c3cc(C#N)ccc3c1C2=O [alectinib] | 75% | 2.52% | 1.74% | 2.31% | 39% | 8% | 58% | 1.1% | 6% | 0.135% | 2.46% | 
COc1cc(N2CCC(N3CCN(C)CC3)CC2)ccc1Nc1ncc(Cl)c(Nc2ccccc2P(C)(C)=O)n1 [brigatinib] |  |  |  |  |  |  |  |  |  |  |  | %-inhibition at 1 µmol/L, PHKG2 [1]: 96%; %-inhibition at 1 µmol/L, HIPK1 [2]: 11%; %-inhibition at 1 µmol/L, SPHK2 [3]: 11%; %-inhibition at 1 µmol/L, CRIK [4]: 3.33%; %-inhibition at 1 µmol/L, FLT4 [5]: 99%; %-inhibition, PAK5 [6]: 82%; %-inhibition at 1 µmol/L, DAPK1 [7]: 83%; %-inhibition at 1 µmol/L, Erk2 [8]: 10%; %-inhibition at 1 µmol/L, PLK2 [9]: 0.275%; %-inhibition at 1 µmol/L, PKCγ [10]: 11%; %-inhibition at 1 µmol/L, TXK [11]: 76%
Cc1cc(Nc2ncc(Cl)c(Nc3ccccc3S(=O)(=O)C(C)C)n2)c(OC(C)C)cc1C1CCNCC1 [ceritinib] | 83% | 12% | 6.4% | -0.933% | 75% | 15% | 6% | 57% | -3.54% | -1.46% | 1.15% | 
O=C(c1ccc(F)c(F)c1Nc1ccc(I)cc1F)N1CC(O)([C@@H]2CCCCN2)C1 [cobimetinib] | 2.22% | 6.62% | 11% | 0.417% | -6% | 0.678% | -4% | -6.38% | -0.309% | -1.52% | 0.165% | 
C[C@@H](Oc1cc(-c2cnn(C3CCNCC3)c2)cnc1N)c1c(Cl)ccc(F)c1Cl [crizotinib] |  |  |  |  |  |  |  |  |  |  |  | %-inhibition at 1 µmol/L, PHKG2 [1, 23]: 10%; %-inhibition at 1 µmol/L, HIPK1 [2, 24]: -7%; %-inhibition at 1 µmol/L, SPHK2 [3, 25]: 8%; %-inhibition at 1 µmol/L, CRIK [4, 26]: -12%; %-inhibition at 1 µmol/L, FLT4 [5, 27]: 48%; %-inhibition, PAK5 [6, 28]: 7%; %-inhibition at 1 µmol/L, DAPK1 [7, 29]: -4%; %-inhibition at 1 µmol/L, Erk2 [8, 30]: -4.58%; %-inhibition at 1 µmol/L, PLK2 [9, 31]: 1.1%; %-inhibition at 1 µmol/L, PKCγ [10, 32]: -0.662%; %-inhibition at 1 µmol/L, TXK [11, 33]: 39%
CC(C)(C)c1nc(-c2cccc(NS(=O)(=O)c3c(F)cccc3F)c2F)c(-c2ccnc(N)n2)s1 [dabrafenib] |  |  |  |  |  |  |  |  |  |  |  | %-inhibition at 1 µmol/L, PHKG2 [1, 23]: 2%; %-inhibition at 1 µmol/L, HIPK1 [2, 24]: 70%; %-inhibition at 1 µmol/L, SPHK2 [3, 25]: -14%; %-inhibition at 1 µmol/L, CRIK [4, 26]: -2.74%; %-inhibition at 1 µmol/L, FLT4 [5, 27]: 85%; %-inhibition, PAK5 [6, 28]: 21%; %-inhibition at 1 µmol/L, DAPK1 [7, 29]: -0.54%; %-inhibition at 1 µmol/L, Erk2 [8, 30]: -8%; %-inhibition at 1 µmol/L, PLK2 [9, 31]: -4.64%; %-inhibition at 1 µmol/L, PKCγ [10, 32]: -0.381%; %-inhibition at 1 µmol/L, TXK [11, 33]: 18%
C=CC(=O)N1CCC[C@@H](n2nc(-c3ccc(Oc4ccccc4)cc3)c3c(N)ncnc32)C1 [ibrutinib] | 0.816% | 4.26% | 10% | -0.165% | 91% | 12% | -3.8% | -7% | 1.72% | 0.797% | 98% | 
CO[C@@H]1[C@H](N(C)C(=O)c2ccccc2)C[C@H]2O[C@]1(C)n1c3ccccc3c3c4c(c5c6ccccc6n2c5c31)C(=O)NC4 [midostaurin] | 67% | 12% | 12% | 1.32% | 99% | 37% | 57% | 2.14% | 2.68% | 91% | 25% | 
